Measured values reported in US6833373B1, “Method of using an integrin antagonist and one or more antineoplastic agents as a combination therapy in the treatment of neoplasia” (G.D. Searle & Co., priority 1998, dated 2004).

Columns and labels:
human U251 glioblastoma = test: U251 glioblastoma model; assay type: in vivo, SCID mice; conditions: for tumor growth (mean tumor volume with time): compound I7 10 mg/kg BID PO day 14-44, BCNU 12 mg/kg once a day on days 14, 18 and 22
Procedure: compound I7 was evaluated in the human U251 glioblastoma model. The tumors were implanted onto the flanks of SCID mice and the mean tumor volume with time was calculated. […] These clinically relevant measurements of antitumor efficacy establish the antitumor efficacy of compound I7, especially when combined with standard of care chemotherapeutic agents.

[1] = 15 mg/kg/day, biliary cirrhosis trials; cited from earlier work
[2] = test system: Lewis Lung carcinoma (LLC); test: Lewis Lung carcinoma (LLC) model; conditions: for growth of the LLC tumor (primary tumor mass): compound I7 1 and 10 mg/kg BID PO from day 1, cisplatin single ip dose 10 mg/kg on day 5; for median survival time: compound I7 at 10 mg/kg
Procedure: Tumor cells for implantation were taken from cells either grown in tissue culture (Leydig, M21) or serially passaged as tumors in mice and prepared as tumor brei (LLC). […] Tumor volumes were measured at intervals over the course of the experiments. Tumors were measured with a vernier caliper and volumes were determined using the formula for the volume of a cylinder: tumor volume=width^2×length×0.52. […] On the final day of the experiment, tumors were dissected free and weighed. The data are expressed as the mean +/− SEM. Student's and Mann-Whitney tests were used to assess differences between means or medians using the InStat software package.

[3] = test system: Rice 500 rat Leydig testicular tumor; test: Rice 500 rat Leydig testicular tumor model; assay type: in vivo, SCID mice; conditions: for survival compared to vehicle treated controls: single agents, p<0.05
Procedure: The Rice 500 rat Leydig testicular tumor grows very quickly when implanted into the flank of SCID mice. […] Tumor growth was reduced by about 50% at the […] dose in this aggressive model. […] Similar to the results seen in the M21 tumor model, compound I7 increased the effects of cisplatin in the Leydig tumor model. […] In a similar experiment, the effects of compound I7, cisplatin and the combination were evaluated for potentiation of overall survival in the Leydig tumor mice. Survival was increased by either compound I7 or cisplatin alone when compared to vehicle treated controls (p<0.05). More importantly, the combination of the two agents almost doubled overall survival (from 17 to 29 days) (p<0.0l combination vs. cisplatin, p<0.001 combination vs. control). Thus, the ability of compound I7 to work alone or in combination therapy to prevent tumor growth clearly correlates with enhanced survival.

lung tumors = test: Implanted tumor cells, lung tumors in mice, compound I7 with or without cisplatin; assay type: in vivo; conditions: compared to the control groups; lung tumors greater than 2,000 mm^3
Description: In an additional experiment, tumor cells were implanted into mice; lung tumors of volumes greater than 2,000 mm^3 were developed. The mice were then separated into four groups, including a control group and three treatment groups: compound I7 alone; compound I7 with cisplatin (a cytotoxic drug); or cisplatin alone. Compared to the control groups, the mice treated with combination compound I7/cisplatin therapy experienced more than an 80 percent reduction in tumor size. In comparison, the group receiving cisplatin alone experienced 50 percent reductions in tumor size and the compound I7 group experienced 20-30 percent reductions. These studies indicate that compound I7 has prominent anti-tumor activity.

[4] = test system: A2780 human ovarian carcinoma; test: A2780 mouse model; assay type: in vivo, SCID mice; conditions: compound I7 10 mg/kg BID PO; cisplatin 10 mg/kg ip once on day 20
Description: compound I7 prevents the growth of human ovarian carcinoma in SCID mice. […] Survival studies are now underway to characterize the survival benefit of combination therapy in this model.

M21 human melanoma cells = test: M21 human melanoma model; assay type: in vivo, SCID mice
Procedure: In the M21 model, M21 human melanoma cells implanted subcutaneously into SCID mice developed tumors which grew to approximately 400 mm^3 within 30 days. […] Cisplatin was administered once by ip injection (10 mg/kg) on day 14. […] The results of this dose sequencing experiment establish the efficacy of compound I7 in combination therapy with cisplatin when administered before, concurrent with, or after cisplatin dosing.

[5] = test system: angiogenesis induced by bFGF or VEGF; test: Corneal micropocket assay; assay type: in vivo, female C57BL6 mice; conditions: BID
Description: In this model, an intrastromal pocket is surgically created in the normally avascular cornea of female C57BL6 mice 1 mm distance from the corneal-scleral junction. A slow release hydron polymer pellet containing an angiogenic growth factor (bFGF or VEGF) is inserted into the corneal pocket. The pocket is self sealing and antibiotic ointment is placed in the eye.

[6] = test system: Cancer cells implanted subcutaneously; conditions: large-volume tumors (>1,500 mm^3); dose dependent; cited from earlier work
[7] = test system: 435/GFP HAL-1 (MDA-MB-435 breast carcinoma) cells; test: Metastasis model, 435/GFP HAL-1 orthotopic implantation; assay type: in vivo, SCID mice; conditions: for reduction in lung metastatic burden: eight weeks
Description: Accurate quantitation of early-stage metastasis in animal models is typically hampered by the lack of sensitive and convenient assays to detect low numbers of tumor cells in a background of normal tissue. Quantitation of late-stage metastasis by counting of visible foci or comparison of organ weights requires substantial tumor burden which can take 3-4 months to develop in conventional models of breast cancer, and generally cannot detect subtle differences. […] The GFP-transfected cells are easily detected by flow cytometry, and fixation of the cells or the addition of antibodies or exogenous substrates is not required. A highly aggressive clone was isolated from the lung of a SCID mouse implanted in the mammary fat pad with several GFP-expressing clones. […] Eight weeks later, lungs were removed and weighed.

## O=NN(CCCl)C(=O)NCCCl [BCNU, carmustine]
Human U251 glioblastoma
  tumor growth (mean tumor volume with time): regression of the tumors to the limit of detectability, but the tumors grew back
Human U251 glioblastoma; p<0.01
  duration of the response: 5 days

## C[C@H](CCC(=O)O)[C@H]1CC[C@H]2[C@@H]3[C@@H](O)C[C@@H]4C[C@H](O)CC[C@]4(C)[C@H]3CC[C@]12C [URSO, Ursodeoxycholate]
[1]
  tolerability: extremely well tolerated and without toxicity

## N.N.[Cl][Pt][Cl] [cisplatin, reference compound]
[2]; cisplatin 10 mg/kg ip day 5, compound I7 10 mg/kg
  time to develop a tumor >500 mm^3: 22.4 days
[2]
  growth of the LLC tumor (primary tumor mass): significantly retarded the growth
[2]; cisplatin 10 mg/kg ip day 5
  median survival time: 33 days
[3]
  survival compared to vehicle treated controls: increased
Lung tumors
  reduction in tumor size: 50%
[4]
  tumor growth: decreasing tumor growth

## O=C(O)C[C@@H](NC(=O)CNC(=O)c1cc(O)cc(NC2=NCC(O)CN2)c1)c1cc(Cl)cc(Br)c1O (stereo partly drawn) [compound I7, (3R)-N-[3-hydroxy-5-[(1,4,5,6-tetrahydro-5-hydroxy-2-pyrimidinyl)amino]benzoyl]glycyl-3-(3-bromo-5-chloro-2-hydroxyphenyl)-b-alanine]
[2]
  growth of the LLC tumor (primary tumor mass): did not affect the growth
[2]; cisplatin 10 mg/kg ip day 5
  median survival time: 33 days
M21 human melanoma cells; 10 mg/kg
  time to tumor volume >200 mm^3: 27 days
M21 human melanoma cells; oral BID, at time of tumor implantation or beginning up to 21 days after
  growth of M21 tumors: dose-dependently retarded the growth
Human U251 glioblastoma
  tumor growth (mean tumor volume with time): little inhibition of tumor growth
[3]; 2 mg/ml dose in drinking water
  tumor growth reduced: about 50%
[3]; compound I7 10 or 100 mg/kg BID PO from day 5, monotherapy or with cisplatin 10 mg/kg ip once day 5, p<0.01 vs control
  inhibition of tumor growth: Dose-related inhibition of tumor growth
[3]; in the drinking water at 0.02 to 2 mg/ml
  tumor growth: inhibited tumor growth dose-dependently
[3]
  survival compared to vehicle treated controls: increased
[5]
  angiogenesis induced by either bFGF or VEGF: inhibited angiogenesis
[5]; maximal inhibitory activity at 10 mg/kg BID orally
  inhibition of the angiogenic response: up to 42%
Lung tumors
  reduction in tumor size: 20-30%
[4]
  tumor growth: equally effective as cisplatin
[6]
  reduced tumor growth: ≤ 85%
[7]; 10 mg/kg BID orally
  reduction in lung metastatic burden: 55%
[7]; 30 mg/kg BID orally
  reduction in lung metastatic burden: 69%
[7]; 1, 10 and 30 mg/kg BID orally, visual counting or flow cytometry
  spontaneous metastasis of 435 breast carcinoma cells to the lungs: dose-dependently reduced
[7]; mouse, in vivo
  growth of the primary tumor mass: did not delay the growth
  histological examination of lung sections: dramatic reduction in the number of large macroscopic metastases and an increase in the presence of microscopic foci of metastases
